The subject of assay [1] is H1975 (KRAS wild type human lung adenocarcinoma cell line). Nature of the assay: KRAS 3D-Cell Proliferation Assay, H1975 (Example 503). The format is cell-based. The conditions noted are these: Homo sapiens, NCI-H1975, 168 h, H1975 3D culture, 7 days, CellTiter-Glo 3D; read-out: Prolif H1975 3D ATP IC50. The essentials: (§1)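 IC50s come from a 4-parameter Hill fit of luminescence (CellTiter-Glo 3D) normalized between DMSO (0%) and 1 μM staurosporine (100%). Cells in low-attachment 3D culture, RPMI-1640 with 10% FBS, received serial compound dilutions (0.3% DMSO) after overnight and were incubated 7 days at 37 °C.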
(In general: ATP-based viability assays read luminescence as a measure of living cells.)

Assay [2] concerns HPAC (homozygous mutant KRAS G12D human pancreatic cell line). Description: KRAS 3D-Cell Proliferation Assay, HPAC (Example 503). The format is cell-based. The following applies: Homo sapiens, 168 h, HPAC 3D culture, 7 days, CellTiter-Glo 3D, read-out: Prolif HPAC 3D ATP IC50. The essentials: as §1

Read-outs that look alike come from different tables or passages of the source.

Usually IC50 stands for the point on the concentration scale where inhibition reaches its midpoint. `Cc1cc(N)c(F)c(-c2nc3c4c(nc(OC[C@@]56CCCN5CC5(CC5(F)F)C6)nc4c2F)N2C[C@H]4CC[C@H](N4)[C@H]2[C@H](C)O3)c1C(F)(F)F` (stereo partly drawn) [Compound 227, 3-((5S,5aS,6S,9R)-12-(((7a′S)-2,2-Difluorodihydro-1′H,3′H-spiro[cyclopropane-1,2′-pyrrolizin]-7a′(5′H)-yl)methoxy)-1-fluoro-5-methyl-5a,6,7,8,9,10-hexahydro-5H-4-oxa-3,10a,11,13,14-pentaaza[6,9]methanonaphtho[1,8-ab]heptalene-2-yl)-2-fluoro-5-methyl-4-(trifluoromethyl)aniline]: the IC50 in assay [1] came out at 679 nM; in assay [2] (HPAC), 0.516 nM.

Turning to `Cc1c(F)c(N)c(F)c(-c2nc3c4c(nc(OC[C@@H]5C[C@@H](F)CN5C)nc4c2F)N2C[C@H]4CC[C@H](N4)[C@H]2[C@H](C)O3)c1C(F)(F)F` [Compound 228, 2,6-Difluoro-3-((5S,5aS,6S,9R)-1-fluoro-12-(((2S,4R)-4-fluoro-1-methylpyrrolidin-2-yl)methoxy)-5-methyl-5a,6,7,8,9,10-hexahydro-5H-4-oxa-3,10a,11,13,14-pentaaza-6,9-methanonaphtho[1,8-ab]heptalen-2-yl)-5-methyl-4-(trifluoromethyl)aniline], the IC50 in assay [1] worked out at 20000 nM; in assay [2] (HPAC) it was 2000 nM.

For the compound `Cc1c(F)c(N)c(F)c(-c2nc3c4c(nc(OC[C@@]56CCCN5C/C(=C\F)C6)nc4c2F)N2C[C@H]4CC[C@H](N4)[C@H]2[C@H](C)O3)c1C(F)(F)F` [Compound 229, 2,6-Difluoro-3-((5S,5aS,6S,9R)-1-fluoro-12-(((S,Z)-2-(fluoromethylene)tetrahydro-1H-pyrrolizin-7a(5H)-yl)methoxy)-5-methyl-5a,6,7,8,9,10-hexahydro-5H-4-oxa-3,10a,11,13,14-pentaaza-6,9-methanonaphtho[1,8-ab]heptalene-2-yl)-5-methyl-4-(trifluoromethyl)aniline], the IC50 in assay [1] turned out to be 639 nM; in assay [2] (HPAC), 1.82 nM.

On to `Cc1cc(N)cc(-c2nc3c4c(nc(OC[C@@H]5CC[C@H]6COCCN65)nc4c2F)N2C[C@H]4CC[C@H](N4)[C@H]2[C@H](C)O3)c1CC(F)F` [Compound 230, 4-(2,2-Difluoroethyl)-3-((5S,5aS,6S,9R)-1-fluoro-12-(((6S,8aS)-hexahydro-1H-pyrrolo[2,1-c][1,4]oxazin-6-yl)methoxy)-5-methyl-5a,6,7,8,9,10-hexahydro-5H-4-oxa-3,10a,11,13,14-pentaaza-6,9-methanonaphtho[1,8-ab]heptalen-2-yl)-5-methylaniline], for which the IC50 in assay [1] stood at 5840 nM; in assay [2] (HPAC) it was 28.4 nM.

As to `Cc1cc(N)c(F)c(-c2nc3c4c(nc(OC[C@@H]5CC[C@H]6COCCN65)nc4c2F)N2C[C@H]4CC[C@H](N4)[C@H]2[C@H](C)O3)c1CC(F)F` [Compound 231, 4-(2,2-Difluoroethyl)-2-fluoro-3-((5S,5aS,6S,9R)-1-fluoro-12-(((6S,8aS)-hexahydro-1H-pyrrolo[2,1-c][1,4]oxazin-6-yl)methoxy)-5-methyl-5a,6,7,8,9,10-hexahydro-5H-4-oxa-3,10a,11,13,14-pentaaza-6,9-methanonaphtho[1,8-ab]heptalen-2-yl)-5-methylaniline], the half-maximal inhibitory concentration (IC50) in assay [1] was found to be 13200 nM; in assay [2] (HPAC), 39.8 nM.

Regarding `CCc1c(F)c(N)cc(-c2nc3c4c(nc(OC[C@@H]5CC[C@H]6COCCN65)nc4c2F)N2C[C@H]4CC[C@H](N4)[C@H]2[C@H](C)O3)c1C(F)(F)F` [Compound 232, 3-Ethyl-2-fluoro-5-((5S,5aS,6S,9R)-1-fluoro-12-(((6S,8aS)-hexahydro-1H-pyrrolo[2,1-c][1,4]oxazin-6-yl)methoxy)-5-methyl-5a,6,7,8,9,10-hexahydro-5H-4-oxa-3,10a,11,13,14-pentaaza-6,9-methanonaphtho[1,8-ab]heptalen-2-yl)-4-(trifluoromethyl)aniline], the IC50 in assay [1] amounted to 10500 nM; in assay [2] (HPAC), 77 nM.

Turning to `C[C@@H]1Oc2nc(-c3cc(N)c(F)c(C4CC4)c3C(F)(F)F)c(F)c3nc(OC[C@@H]4CC[C@H]5COCCN54)nc(c23)N2C[C@H]3CC[C@H](N3)[C@@H]12` [Compound 233, 3-Cyclopropyl-2-fluoro-5-((5S,5aS,6S,9R)-1-fluoro-12-(((6S,8aS)-hexahydro-1H-pyrrolo[2,1-c][1,4]oxazin-6-yl)methoxy)-5-methyl-5a,6,7,8,9,10-hexahydro-5H-4-oxa-3,10a,11,13,14-pentaaza-6,9-methanonaphtho[1,8-ab]heptalen-2-yl)-4-(trifluoromethyl)aniline], the IC50 in assay [1] came to 5400 nM; in assay [2] (HPAC), 2000 nM.

For `Cc1c(F)c(N)cc(-c2nc3c4c(nc(OC[C@@]56CCCN5C[C@H](F)C6)nc4c2F)N2C[C@H]4CC[C@H](NC4)[C@H]2CO3)c1C(F)(F)F` [Compound 236, 2-Fluoro-5-((5aS,6S,9S)-1-fluoro-12-(((2R,7aS)-2-fluorotetrahydro-1H-pyrrolizin-7a(5H)-yl)methoxy)-5a,6,7,8,9,10-hexahydro-5H-4-oxa-3,10a,11,13,15-pentaaza-6,9-ethanonaphtho[1,8-ab]heptalene-2-yl)-3-methyl-4-(trifluoromethyl)aniline], the concentration for half-maximal inhibition (IC50) in assay [1] stood at 14500 nM; in assay [2] (HPAC), 2000 nM.

As for `Cc1c(F)c(N)cc(-c2nc3c4c(nc(OC[C@@]56CCCN5C[C@H](F)C6)nc4c2F)N2C[C@H]4CC[C@H](N4)[C@H]2C(CF)O3)c1C(F)(F)F` (stereo partly drawn) [Compound 239, 2-Fluoro-5-((5aS,6S,9R)-1-fluoro-5-(fluoromethyl)-12-(((2R,7aS)-2-fluorotetrahydro-1H-pyrrolizin-7a(5H)-yl)methoxy)-5a,6,7,8,9,10-hexahydro-5H-4-oxa-3,10a,11,13,14-pentaaza-6,9-methanonaphtho[1,8-ab]heptalen-2-yl)-3-methyl-4-(trifluoromethyl)aniline], the half-inhibitory concentration (IC50) in assay [1] was 569 nM; in assay [2] (HPAC) it was 33.4 nM.

For `Cc1c(Cl)c(N)cc(-c2nc3c4c(nc(OC[C@@]56CCCN5C[C@H](F)C6)nc4c2Cl)N2C[C@H]4CC[C@H](N4)[C@H]2[C@H](C)O3)c1C(F)(F)F` [Compound 241, 2-Chloro-5-((5S,5aS,6S,9R)-1-chloro-12-(((2R,7aS)-2-fluorotetrahydro-1H-pyrrolizin-7a(5H)-yl)methoxy)-5-methyl-5a,6,7,8,9,10-hexahydro-5H-4-oxa-3,10a,11,13,14-pentaaza-6,9-methanonaphtho[1,8-ab]heptalen-2-yl)-3-methyl-4-(trifluoromethyl)aniline], the half-maximal inhibitory concentration (IC50) in assay [1] was 1200 nM; in assay [2] (HPAC), 16.2 nM.

In the case of `Cc1c(F)c(N)cc(-c2nc3c4c(nc(OC[C@@]56CCCN5C[C@H](F)C6)nc4c2F)N2C[C@H]4CC[C@H](N4)[C@H]2[C@H](C(F)(F)F)O3)c1CC(F)F` [Compound 250, 4-(2,2-Difluoroethyl)-2-fluoro-5-((5R,5aS,6S,9R)-1-fluoro-12-(((2R,7aS)-2-fluorotetrahydro-1H-pyrrolizin-7a(5H)-yl)methoxy)-5-(trifluoromethyl)-5a,6,7,8,9,10-hexahydro-5H-4-oxa-3,10a,11,13,14-pentaaza-6,9-methanonaphtho[1,8-ab]heptalene-2-yl)-3-methylaniline], the concentration for half-maximal inhibition (IC50) in assay [1] is 994 nM; in assay [2] (HPAC), 16.9 nM.

With `Cc1nc(N)c(F)c(-c2nc3c4c(nc(OC[C@@]56CCCN5C[C@H](F)C6)nc4c2F)N2C[C@H]4CC[C@H](N4)[C@H]2[C@H](C(F)(F)F)O3)c1C(F)(F)F` [Compound 256, 3-Fluoro-4-((5R,5aS,6S,9R)-1-fluoro-12-(((2R,7aS)-2-fluorotetrahydro-1H-pyrrolizin-7a(5H)-yl)methoxy)-5-(trifluoromethyl)-5a,6,7,8,9,10-hexahydro-5H-4-oxa-3,10a,11,13,14-pentaaza-6,9-methanonaphtho[1,8-ab]heptalen-2-yl)-6-methyl-5-(trifluoromethyl)pyridin-2-amine], the IC50 in assay [1] amounted to 93.4 nM; in assay [2], 13.9 nM.

`Cc1c(F)c(N)cc(-c2nc3c4c(nc(OCC5(CN6CC6(C)C)CC5)nc4c2F)N2C[C@H]4CC[C@H](N4)[C@H]2[C@H](C)O3)c1C(F)(F)F` (stereo partly drawn) [Compound 259, 5-((5S,5aS,6S,9R)-12-((1-((2,2-Dimethylaziridin-1-yl)methyl)cyclopropyl)methoxy)-1-fluoro-5-methyl-5a,6,7,8,9,10-hexahydro-5H-4-oxa-3,10a,11,13,14-pentaaza-6,9-methanonaphtho[1,8-ab]heptalen-2-yl)-2-fluoro-3-methyl-4-(trifluoromethyl)aniline]: the IC50 in assay [1] is 1970 nM; in assay [2] (HPAC) it was 12.3 nM.

For the compound `C[C@@H]1Oc2nc(-c3cc(N)nc(C(F)F)c3C(F)(F)F)c(F)c3nc(OC[C@@]45CCCN4C[C@H](F)C5)nc(c23)N2C[C@H]3CC[C@H](N3)[C@@H]12` [Compound 260, 6-(Difluoromethyl)-4-((5S,5aS,6S,9R)-1-fluoro-12-(((2R,7aS)-2-fluorotetrahydro-1H-pyrrolizin-7a(5H)-yl)methoxy)-5-methyl-5a,6,7,8,9,10-hexahydro-5H-4-oxa-3,10a,11,13,14-pentaaza-6,9-methanonaphtho[1,8-ab]heptalen-2-yl)-5-(trifluoromethyl)pyridin-2-amine], the IC50 in assay [1] amounted to 3250 nM; in assay [2] (HPAC), 41.5 nM.

Take `Cc1nc(N)cc(-c2nc3c4c(nc(OCC56C[C@@H](F)CN5C[C@H](F)C6)nc4c2F)N2C[C@H]4CC[C@H](N4)[C@H]2[C@H](C(F)(F)F)O3)c1C(F)(F)F` [Compound 261, 4-((5R,5aS,6S,9R)-12-(((2R,6R)-2,6-Difluorotetrahydro-1H-pyrrolizin-7a(5H)-yl)methoxy)-1-fluoro-5-(trifluoromethyl)-5a,6,7,8,9,10-hexahydro-5H-4-oxa-3,10a,11,13,14-pentaaza-6,9-methanonaphtho[1,8-ab]heptalen-2-yl)-6-methyl-5-(trifluoromethyl)pyridin-2-amine]: the IC50 in assay [1] was 6100 nM; in assay [2] (HPAC), 107 nM.

Values taken from patent US12338256B2, “Aza-tetracyclic oxazepine compounds and uses thereof” (Genentech, Inc., priority 2022, dated 2025).
